In patent US8957077B2, “Pyrazolopyrimidine PDE 10 inhibitors” (Merck Sharp & Dohme Corp., priority 2010, dated 2015):

Biological target: human PDE10A2 (Homo sapiens (Human), UniProt Q9Y233)
Experiment: PDE10 fluorescence polarization (IMAP FP) inhibition assay
Assay type: biochemical
Conditions: human PDE10 enzyme, FAM-labeled cAMP substrate, read-out: PDE10A Ki
Procedure: The activity of the compounds in accordance with the present invention as PDE10 inhibitors may be readily determined without undue experimentation using a fluorescence polarization (FP) methodology that is well known in the art (Huang, W., et al.,J. Biomol Screen, 2002, 7: 215).
In a typical experiment the PDE10 inhibitory activity of the compounds of the present invention was determined in accordance with the following experimental method. PDE10A2 was amplified from human fetal brain cDNA (Clontech, Mountain View, Calif.) using a forward primer corresponding to nucleotides 56-77 of human PDE10A2 (Accession No. AF127480, Genbank Identifier 4894716), containing a Kozak consensus sequence, and a reverse primer corresponding to nucleotides 2406-2413 of human PDE10A2 (Accession No. AF127480, Genbank Identifier 4894716). Amplification with Easy-A polymerase (Stratagene, La Jolla, Calif.) was 95° C. for 2 minutes followed by thirty three cycles of 95° C. for 40 seconds, 55° C. for 30 seconds, and 72° C. for 2 minutes 48 seconds. Final extension was 72° C. for 7 minutes. The PCR product was TA cloned into pcDNA3.2-TOPO (Invitrogen, Carlsbad, Calif.) according to standard protocol. AD293 cells with 70-80% confluency were transiently transfected with human PDE10A2/pcDNA3.2-TOPO using Lipofectamine 2000 according to manufacturer specifications (Invitrogen, Carlsbad, Calif.). Cells were harvested 48 hours post-transfection and lysed by sonication (setting 3, 10×5 sec pulses) in a buffer containing 20 mM HEPES, 1 mM EDTA and protease inhibitor cocktail (Roche). Lysate was collected by centrifugation at 75,000×g for 20 minutes. Supernatant containing the cytoplasmic fraction was used for evaluation of PDE10A2 activity. The fluorescence polarization assay for cyclic nucleotide phosphodiesterases was performed using an IMAP® FP kit supplied by Molecular Devices, Sunnyvale, Calif. (product # R8139). IMAP® technology has been applied previously to phosphodiesterase assays (Huang, W., et al., J. Biomol Screen, 2002, 7: 215). Assays were performed at room temperature in 384-well microtiter plates with an incubation volume of 20.2 μL. Solutions of test compounds were prepared in DMSO and serially diluted with DMSO to yield 8 μL of each of 10 solutions differing by 3-fold in concentration, at 32 serial dilutions per plate. 100% inhibition is determined using a known PDE10 inhibitor, which can be any compound that is present at 5,000 times its Ki value in the assay described as follows, such as papaverine (see Siuciak, et al. Neuropharmacology (2006) 51:386-396; Becker, et al. Behav Brain Res (2008) 186(2):155-60; Threlfell, et al., J Pharmacol Exp Ther (2009) 328(3):785-795), 2-{-4-[pyridin-4-yl-1-(2,2,2-trifluoroethyl)-1H-pyrazol-3-yl]phenoxymethyl}quinoline succinic acid or 2-[4-(1-methyl-4-pyridin-4-yl-1H-pyrazol-3-yl)-phenoxymethyl]quinoline succinic acid (see Schmidt, et al. J Pharmacol Exp Ther (2008) 325:681-690; Threlfell, et al., J Pharmacol Exp Ther (2009) 328(3): 785-795). 0% of inhibition is determined by using DMSO (1% final concentrations).
A Labcyte Echo 555 (Labcyte, Sunnyvale, Calif.) is used to dispense […] from each well of the titration plate to the 384 well assay plate. A solution of enzyme ( 1/1600 dilution from aliquots; sufficient to produce 20% substrate conversion) and a separate solution of FAM-labeled cAMP PDE from Molecular Devices (product # R7506), at a final concentration of 50 nM are made in the assay buffer (10 mM Tris HCl, pH 7.2, 10 mM MgCl2, 0.05% NaN3 0.01% Tween-20, and 1 mM DTT). The enzyme and the substrate are then added to the assay plates in two consecutive additions of 10 μL, and then shaken to mix. The reaction is allowed to proceed at room temperature for 30 minutes. A binding solution is then made from the kit components, comprised of 80% Solution A, 20% Solution B and binding reagent at a volume of 1/600 the total binding solution. […]

human PDE10A2, sequence (Q9Y233 267-1055): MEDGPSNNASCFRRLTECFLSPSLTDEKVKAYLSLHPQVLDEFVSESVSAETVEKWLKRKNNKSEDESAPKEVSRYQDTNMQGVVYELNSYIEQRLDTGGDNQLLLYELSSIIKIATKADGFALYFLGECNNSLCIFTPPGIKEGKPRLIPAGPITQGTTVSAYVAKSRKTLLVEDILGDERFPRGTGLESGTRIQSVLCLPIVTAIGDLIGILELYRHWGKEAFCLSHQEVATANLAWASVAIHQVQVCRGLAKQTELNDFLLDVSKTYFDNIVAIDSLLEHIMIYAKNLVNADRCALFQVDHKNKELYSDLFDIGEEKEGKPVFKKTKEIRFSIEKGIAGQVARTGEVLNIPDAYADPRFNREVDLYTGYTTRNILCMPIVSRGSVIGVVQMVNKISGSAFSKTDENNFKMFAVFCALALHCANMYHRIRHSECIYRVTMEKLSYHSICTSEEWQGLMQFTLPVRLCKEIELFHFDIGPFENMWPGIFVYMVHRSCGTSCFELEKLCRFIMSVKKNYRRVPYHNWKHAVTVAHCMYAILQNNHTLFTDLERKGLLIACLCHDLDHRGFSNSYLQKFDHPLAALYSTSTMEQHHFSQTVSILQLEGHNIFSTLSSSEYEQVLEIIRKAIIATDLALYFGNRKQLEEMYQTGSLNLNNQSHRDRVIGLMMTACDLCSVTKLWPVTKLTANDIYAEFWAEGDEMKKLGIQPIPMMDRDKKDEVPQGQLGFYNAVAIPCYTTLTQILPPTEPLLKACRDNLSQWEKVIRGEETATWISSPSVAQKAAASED

`Cc1nc(C)c(CNc2cc(C(=O)NC[C@H]3C[C@@H]3c3ccc4ccccc4n3)nc3ccnn23)s1` [Compound 1-23, 7-((2,4-dimethylthiazol-5-yl)methylamino)-N-(((1S,2S)-2-(quinolin-2-yl)cyclopropyl)methyl) pyrazolo[1,5-a] pyrimidine-5-carboxamide] and `Cc1nc(C)c(CNc2cc(CCC#Cc3ccc4ccccc4n3)nc3ccnn23)s1` [Compound 1-15, N-[(2,4-dimethyl-1,3-thiazol-5-yl)methyl]-5-[4-(quinolin-2-yl)but-3-yn-1-yl]pyrazolo[1,5-a] pyrimidin-7-amine] are within 1.5-fold of each other in Ki: 0.18 nM for the first, 0.14 nM for the second.

Compared with `Cc1nc(C)c(CNc2cc(C(C)C[C@@H]3C[C@H]3c3ccccn3)nc3ccnn23)s1` (stereo in doubt) [Compound 1-13, N-[(2,4-dimethyl-1,3-thiazol-5-yl)methyl]-5-{1-[2-(pyridin-2-yl)cyclopropyl]propan-2-yl}pyrazolo[1,5-a] pyrimidin-7-amine], `Cc1ncc(CNc2cc(OC[C@H]3C[C@@H]3c3ccccn3)nc3ccnn23)s1` [Compound 1-4, (S,S)-N-[(2-methyl-1,3-thiazol-5-yl)-methyl]-5-{[2-(pyridin-2-yl)cyclopropyl]methoxy} pyrazolo[1,5-a]pyrimidin-7-amine] is 700-fold lower in Ki: 76.9 nM for the first, 0.11 nM for the second.

First: COc1ccc(CCCCc2cc(NCc3sc(C)nc3C)n3nccc3n2)nc1 [Compound 1-10, N-[(2,4-dimethyl-1,3-thiazol-5-yl)methyl]-5-[4-(5-methoxy-pyridin-2-yl)butyl]pyrazolo [1,5-a]pyrimidin-7-amine]
Second: Cc1nc(C)c(CNc2cc(C(=O)NCCc3ccccn3)nc3ccnn23)s1 [Compound 1-25, 7-((2,4-dimethylthiazol-5-yl)methylamino)-N-(2-(pyridin-2-yl)ethyl)pyrazolo [1,5-a] pyrimidine-5-earboxanaide]
The Ki of the first is 3-fold lower: 0.37 nM for the first, 1.1 nM for the second.

Compared with `COc1ccc([C@H]2C[C@@H]2COc2cc(NCc3oc(C)nc3C)n3nccc3n2)nc1` (stereo in doubt) [Compound 1-3, N-[(2,4-dimethyl-1,3-oxazol-5-yl)methyl]-5-{[2-(5-methoxy-pyridin-2-yl)cyclopropyl]-methoxy}pyrazolo [1,5-a]pyrimidin-7-amine], `Cc1ccc([C@H]2C[C@@H]2COc2cc(Oc3ccc(C)nc3)n3nccc3n2)nc1` [Compound 1-22, 5-{[(1S,2S)-2-(5-methylpyridin-2-yl)cyclopropyl]methoxy}-7-[(6-methylpyridin-3-yl)oxy]pyrazolo[1,5-a] pyrimidine] is 15-fold higher in Ki: 1.3 nM for the first, 20 nM for the second.

Compared with `Cc1nnc(CNc2c(F)c(OC[C@H]3C[C@@H]3c3ccccn3)nc3ccnn23)s1` [Compound 1-18, 6-fluoro-N-[(5-methyl-1,3,4-thiadiazol-2-yl)methyl]-5-{[(1S,2S)-2-(pyridin-2-yl)cyclopropyl]methoxy} pyrazolo[1,5-a] pyrimidin-7-amine], `Cc1c(OC[C@H]2C[C@@H]2c2ccccn2)nc2ccnn2c1NCc1cnn(C)c1` [Compound 1-20, 6-methyl-N-[(1-methyl-1H-pyrazol-4-yl)methyl]-5-{[(1S,2S)-2-(pyridin-2-yl)cyclopropyl]methoxy} pyrazolo[1,5-a] pyrimidin-7-amine] is 32-fold higher in Ki: 0.08 nM for the first, 2.52 nM for the second.

Work on `Cc1nc(C)c(CNc2cc(C3CC3)nc3ccnn23)s1` [Compound 1-9, 5-cyclopropyl-N-[(2,4-dimethyl-1,3-thiazol-5-yl)methyl]pyrazolo [1,5-a]pyrim-idin-7-amine] yielded a Ki of 9.2 nM.
